# Assay results taken from patent publication US11517528B2, “Lipid membrane structure for delivery into siRNA cell” (NATIONAL UNIVERSITY CORPORATION HOKKAIDO UNIVERSITY, priority 2017, dated 2022).
# Experiments:
# [1] = tested on: HeLa cells stably expressing dual-luciferase (HeLa-dluc); assay: in vitro knockdown activity, dual-luciferase assay; type: cell-based
# Experimental: Hemolysis activity, in vitro knockdown activity, and in vivo F7 knockdown activity, which are indicators of endosome escape activity, were measured. Regarding the hemolysis activity, mouse erythrocytes and LNPs were mixed in a buffer solution adjusted to pH 6.5, the mixture was incubated at 37° C. for 30 minutes and then centrifuged, and an absorbance of the supernatant at 545 nm was measured. Hemolysis efficiency of each sample was calculated by respectively using a sample to which LNPs were not added and a sample to which Triton X-100 having a final concentration of 0.5% was added, as a negative control and a positive control. Regarding the in vitro knockdown activity, LNPs loaded with siRNA against luciferase were added to HeLa cells stably expressing dual-luciferase (HeLa-dluc) at various concentrations, and knockdown efficiency was calculated 24 hours after the addition by dual-luciferase assay. […] Regarding the in vivo F7 knockdown activity, 0.1 mg siRNA/kg of LNPs loaded with siRNA against F7 were intravenously administered to an ICR mouse (4 weeks old, female), and F7 enzyme activity in plasma was measured 24 hours after the administration. Each activity against pKa was plotted (FIG. 3).
# The influence of hydrophobic scaffolds on siRNA introduction activity of small LNPs with an average particle diameter of about 35 nm was examined. […]
# [2] = cationic lipid content in liver and spleen by LC/MS; type: in vivo, mouse; conditions: 1 mg siRNA/kg of LNP i.v., ICR mice; until 72 hours
# Experimental: 1 mg siRNA/kg of Each LNP was intravenously administered to ICR mice (4 weeks old, female), the liver and spleen were recovered over time, and each cationic lipid was quantitatively determined by LC/MS.
smiles,measurement,setting,value
"CCCCC/C=C\C/C=C\CCCCCCCCC(O)(CCCCCCCC/C=C\C/C=C\CCCCC)CCCCOC(=O)C1CCN(C)CC1 [CL15A, (14Z,17Z)-5-Hydroxy-5-((9Z,12Z)-octadeca-9,12-dien-1-yl)tricosa-14,17-dien-1-yl 1-methylpiperidine-4-carboxylate]",luciferase knockdown efficiency,"[1]; 30 nM siRNA, small LNPs, average particle diameter about 35 nm, HeLa-dluc",≤ 30%
"CCCCCCCC/C=C\CCCCCCCC(=O)OCCCCCCC(O)(CCCCCCOC(=O)CCCCCCC/C=C\CCCCCCCC)CCCCOC(=O)C1CCN(C)CC1 [CL15H6, 7-Hydroxy 7-(4-((1-methylpiperidine-4-carbonyl)oxy)butyl)tridecane-1,13-diyl dioleate]",in vitro knockdown activity,"[1]; LNPs loaded with siRNA against luciferase, 24 hours, compared with CL15A",about three times higher activity than that of CL15A
CCCCC/C=C\C/C=C\CCCCCCCCOC1(OCCCCCCCC/C=C\C/C=C\CCCCC)CCN(C)CC1 [YSK05],tissue content of cationic lipid in liver and spleen over time,[2],almost constant until 72 hours after the administration
